# Laboratory results: US20100298252A1, “METHODS AND COMPOSITIONS FOR OPHTHALMIC TREATMENT OF FUNGAL AND BACTERIAL INFECTIONS” (priority 2004, published 2010)
# Legend:
# Aspergillus sp. = test: Antifungal MIC 50 / MIC 90 alone and combined with Tricide; format: cell-based
# Fusarium sp. 1 = test: microbe, parasite or virus in culture; format: cell-based;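 also: mean MIC 50 and MIC 90 values against fungal isolates, with percent decrease in MIC when the antifungal is combined with Tricide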
# Fusarium sp. 3 = test: microbe, parasite or virus in culture; format: cell-based
# Penicillium sp. = test: Antifungal MIC 50 / MIC 90 alone and combined with Tricide; format: cell-based
# [1] = test system: Paecilomyces variotti ATCC 36257; test: as above; format: cell-based
# Fusarium sp. 2 = test: microbe, parasite or virus in culture; format: cell-based
# Cladosporium sp. = test: Antifungal MIC 50 / MIC 90 alone and combined with Tricide; format: cell-based
# [2] = test system: Candidia albicans ATCC 90028; test: as above; format: cell-based, Candida albicans;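 also: MIC 50 and MIC 90 values are means, and the percent decrease is the drop in MIC when the antifungal is combined with Tricide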
# Curvularia sp. = test: as above; format: cell-based;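 also: antifungal MIC 50 and MIC 90 values against fungal isolates, with percent figures expressing how much the MIC fell once Tricide was added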
# [3] = Aspergillus sp., Tricide 200 ug/ml
# [4] = Aspergillus, Aspergiullus sp., antifungal alone
# [5] = Fusarium sp. 1, Tricide 540 ug/ml
# [6] = Fusarium sp. 1, antifungal alone
# [7] = Paecilomyces variotti, Tricide […]
# [8] = Candida albicans, ATCC90028, Candidia albicans ATCC 90028, antifungal alone
# [9] = Curvilaria sp., Tricide 200 ug/ml
# [10] = Curvularia sp., antifungal alone
smiles,measurement,setting,value
"Clc1ccc(COC(Cn2ccnc2)c2ccc(Cl)cc2Cl)c(Cl)c1 (stereo not shown) [Miconazole, miconazole]",% decrease MIC 50,Aspergillus sp.; [3],96%
same,% decrease MIC 90,Aspergillus sp.; [3],84%
same,MIC 50 combined with Tricide,Aspergillus sp.; [3],0.1250 µg/mL
same,MIC 90 combined with Tricide,Aspergillus sp.; [3],2 µg/mL
same,MIC50,Aspergillus sp.; [4],3.11 µg/mL
same,MIC90,Aspergillus sp.; [4],12.4 µg/mL
same,Summary % reduction in MIC 50 using Tricide,Aspergillus sp.; Aspergiullus sp.,96%
same,Summary % reduction in MIC 90 using Tricide,Aspergillus sp.; Aspergiullus sp.,84%
same,Summary % reduction in MIC 50 using Tricide,Fusarium sp. 1; Fasarium sp. 1,>99.8%-100%
same,Summary % reduction in MIC 90 using Tricide,Fusarium sp. 1; Fasarium sp. 1,99.8%-100%
same,% decrease MIC 50,Fusarium sp. 1; [5],>99.8-100% ^
same,% decrease MIC 90,Fusarium sp. 1; [5],99.8-100%^
same,MIC 90 combined with Tricide,Fusarium sp. 1; [5],0 to 0.05 µg/mL
same,MIC50,Fusarium sp. 1; [6],> 128 µg/mL
same,MIC90,Fusarium sp. 1; [6],> 128 µg/mL
same,Summary % reduction in MIC 50 using Tricide,Fusarium sp. 3,100%
same,Summary % reduction in MIC 90 using Tricide,Fusarium sp. 3,100%
same,% decrease MIC 50,Fusarium sp. 3; Tricide 540 ug/ml,100%
same,% decrease MIC 90,Fusarium sp. 3; Tricide 540 ug/ml,100%
same,MIC 50 combined with Tricide,Fusarium sp. 3; Tricide 540 ug/ml,0 µg/mL
same,MIC 90 combined with Tricide,Fusarium sp. 3; Tricide 540 ug/ml,0 µg/mL
same,MIC50,Fusarium sp. 3; antifungal alone,> 128 µg/mL
same,MIC90,Fusarium sp. 3; antifungal alone,> 128 µg/mL
same,Summary % reduction in MIC 50 using Tricide,Penicillium sp.,100%
same,Summary % reduction in MIC 90 using Tricide,Penicillium sp.,100%
same,% decrease MIC 50,Penicillium sp.; Tricide 200 ug/ml,100%
same,% decrease MIC 90,Penicillium sp.; Tricide 200 ug/ml,100%
same,MIC 50 combined with Tricide,Penicillium sp.; Tricide 200 ug/ml,0 µg/mL
same,MIC 90 combined with Tricide,Penicillium sp.; Tricide 200 ug/ml,0 µg/mL
same,MIC50,Penicillium sp.; antifungal alone,0.181 µg/mL
same,MIC90,Penicillium sp.; antifungal alone,0.361 µg/mL
same,MIC50,"[1]; ATCC36257, Paecilomyces variotti ATCC 36257, antifungal alone, read-out: MIC 50",0.0764 µg/mL
same,MIC90,"[1]; ATCC36257, Paecilomyces variotti ATCC 36257, antifungal alone, read-out: MIC 90",> 1 µg/mL
same,Summary % reduction in MIC 50 using Tricide,[1]; Paecilomyces variotti ATCC36257,97.4%
same,% decrease MIC 50,[1]; [7],97.4%
same,MIC 50 combined with Tricide,[1]; [7],0.002 µg/mL
same,MIC 90 combined with Tricide,[1]; [7],>1 µg/mL
same,Summary % reduction in MIC 50 using Tricide,Fusarium sp. 2,>99.9%-100%
same,Summary % reduction in MIC 90 using Tricide,Fusarium sp. 2,99.9%-100%
same,% decrease MIC 50,Fusarium sp. 2; Tricide 540 ug/ml,>99.9-100% ^
same,% decrease MIC 90,Fusarium sp. 2; Tricide 540 ug/ml,99.9-100%^
same,MIC 90 combined with Tricide,Fusarium sp. 2; Tricide 540 ug/ml,0.05 µg/mL
same,MIC50,Fusarium sp. 2; antifungal alone,> 128 µg/mL
same,MIC90,Fusarium sp. 2; antifungal alone,> 128 µg/mL
same,Summary % reduction in MIC 50 using Tricide,Cladosporium sp.,97%
same,Summary % reduction in MIC 90 using Tricide,Cladosporium sp.,98%
same,% decrease MIC 50,Cladosporium sp.; Tricide 200 ug/ml,>97%
same,% decrease MIC 90,Cladosporium sp.; Tricide 200 ug/ml,98%
same,MIC 50 combined with Tricide,Cladosporium sp.; Tricide 200 ug/ml,<0.125 µg/mL
same,MIC 90 combined with Tricide,Cladosporium sp.; Tricide 200 ug/ml,0.25 µg/mL
same,MIC50,Cladosporium sp.; antifungal alone,4 µg/mL
same,MIC90,Cladosporium sp.; antifungal alone,16 µg/mL
same,MIC50,[2]; [8],0.5 µg/mL
same,MIC90,[2]; [8],> 1 µg/mL
same,% decrease MIC 50,"[2]; Candida albicans, Tricide […]",100%
same,% decrease MIC 90,"[2]; Candida albicans, Tricide […]",100%
same,MIC 50 combined with Tricide,"[2]; Candida albicans, Tricide […]",0 µg/mL
same,Summary % reduction in MIC 50 using Tricide,[2]; Candidia albicans ATCC 90028,100%
same,Summary % reduction in MIC 90 using Tricide,[2]; Candidia albicans ATCC 90028,100%
same,% decrease MIC 50,Curvularia sp.; [9],99-100% ^
same,% decrease MIC 90,Curvularia sp.; [9],90-100% ^
same,MIC 50 combined with Tricide,Curvularia sp.; [9],0 to 0.0250 µg/mL
same,MIC 90 combined with Tricide,Curvularia sp.; [9],0 to 0.4 µg/mL
same,Summary % reduction in MIC 50 using Tricide,Curvularia sp.; Curvularia sp.,99-100% ^
same,Summary % reduction in MIC 90 using Tricide,Curvularia sp.; Curvularia sp.,90-100% ^
same,MIC50,Curvularia sp.; [10],3.11 µg/mL
same,MIC90,Curvularia sp.; [10],4 µg/mL
